Assay results as given in patent US11161856B2 (H. Lundbeck A/S, priority 2017, dated 2021).

Key:
[1] = molecular target: T1, MGLL (Mus musculus, UniProt O35678); assay: In vitro competitive activity-based protein profiling, mouse brain proteome (MGLL); assay type: biochemical; parameters: IC50 MGLL Brain (Mouse, μM): scale not given here; details: for % Inh MGLL Brain (Mouse, μM): concentration not given (μM)
T1 construct: Brain; from tissue; host or cells: mouse brain proteome
T1 sequence (O35678 1-303): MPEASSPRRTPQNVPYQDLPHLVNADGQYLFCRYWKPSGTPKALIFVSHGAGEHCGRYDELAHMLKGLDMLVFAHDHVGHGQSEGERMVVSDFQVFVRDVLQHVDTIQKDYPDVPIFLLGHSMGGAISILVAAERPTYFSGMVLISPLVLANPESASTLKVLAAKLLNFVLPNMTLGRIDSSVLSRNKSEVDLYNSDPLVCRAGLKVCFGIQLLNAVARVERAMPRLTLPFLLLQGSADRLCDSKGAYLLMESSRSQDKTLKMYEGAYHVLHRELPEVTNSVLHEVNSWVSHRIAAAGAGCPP

[2] = molecular target: T2, ABHD6 (Mus musculus, UniProt Q8R2Y0); assay: In vitro competitive activity-based protein profiling, mouse brain proteome (ABHD6); assay type: biochemical; details: for % Inh ABHD6 Brain (Mouse, μM): mouse brain proteome, concentration not given (μM)
T2 construct: Brain; from tissue; host or cells: mouse brain proteome
T2 sequence (Q8R2Y0 1-336): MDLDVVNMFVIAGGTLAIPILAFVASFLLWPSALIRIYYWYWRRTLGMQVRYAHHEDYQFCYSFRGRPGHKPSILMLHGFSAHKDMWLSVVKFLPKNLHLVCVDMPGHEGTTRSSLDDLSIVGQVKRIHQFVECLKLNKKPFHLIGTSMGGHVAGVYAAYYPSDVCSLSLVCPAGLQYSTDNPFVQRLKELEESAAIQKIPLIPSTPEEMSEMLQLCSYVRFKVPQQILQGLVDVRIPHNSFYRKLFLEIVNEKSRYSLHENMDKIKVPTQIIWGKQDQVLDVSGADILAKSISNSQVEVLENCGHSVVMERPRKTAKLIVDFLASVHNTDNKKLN
Experimental: [The source words this procedure for another target and reports this target under the same test.] In Vitro Competitive Activity-Based Protein Profiling.
Proteomes (human prefrontal cortex or cell membrane fractions) (50 μL, 1.0 mg/mL total protein concentration) were preincubated with varying concentrations of inhibitors at 37° C. After 30 min, FP-Rh or HT-01 (1.0 μL, 50 μM in DMSO) was added and the mixture was incubated for another 30 min at room temperature. Reactions were quenched with SDS loading buffer (15 μL-4×) and run on SDS-PAGE.

IC50 MGLL Brain (Mouse, μM) [1]	% Inh MGLL Brain (Mouse, μM) [1]	% Inh ABHD6 Brain (Mouse, μM) [2]	IC50 ([2]; mouse proteome) [nM]	Structure (SMILES)
* * *	### (### is ≥75%)	### (### is ≥75%)	–	CC(=O)N1CCCc2cccc(CN3CC4(CCN(C(=O)OC(C(F)(F)F)C(F)(F)F)CC4)C3)c21 [Example 15, 1,1,1,3,3,3-Hexafluoropropan-2-yl 2-((1-acetyl-1,2,3,4-tetrahydroquinolin-8-yl)methyl)-2,7-diazaspiro[3.5]nonane-7-carboxylate]
* * *	### (### is ≥75%)	### (### is ≥75%)	–	CCN1CCCc2cccc(CN3CC4(CCN(C(=O)OC(C(F)(F)F)C(F)(F)F)CC4)C3)c21 [Example 16, 1,1,1,3,3,3-Hexafluoropropan-2-yl 2-((1-ethyl-1,2,3,4-tetrahydroquinolin-8-yl)methyl)-2,7-diazaspiro[3.5]nonane-7-carboxylate]
–	### (### is ≥75%)	### (### is ≥75%)	–	O=C(OC(C(F)(F)F)C(F)(F)F)N1CC2(CCN(Cc3ccc(N4CCCC4)cc3)CC2)C1 [Example 17, 1,1,1,3,3,3-hexafluoropropan-2-yl 7-(4-(pyrrolidin-1-yl)benzyl)-2,7-diazaspiro[3.5]nonane-2-carboxylate]
–	## (## is between 25 and 75%)	### (### is ≥75%)	–	O=C(OC(C(F)(F)F)C(F)(F)F)N1CC2(CCN(Cc3ccc(CN4CCOCC4)cc3)CC2)C1 [Example 18, 1,1,1,3,3,3-Hexafluoropropan-2-yl 7-(4-(morpholinomethyl)benzyl)-2,7-diazaspiro[3.5]nonane-2-carboxylate]
–	## (## is between 25 and 75%)	### (### is ≥75%)	–	Cc1cc(-c2ccccc2)ccc1CN1CCC2(CC1)CN(C(=O)OC(C(F)(F)F)C(F)(F)F)C2 [Example 19, 1,1,1,3,3,3-Hexafluoropropan-2-yl 7-((3-methyl-[1,1′-biphenyl]-4-yl)methyl)-2,7-diazaspiro[3.5]nonane-2-carboxylate]
* * *	### (### is ≥75%)	# (# is ≤25%)	–	O=C(OC(C(F)(F)F)C(F)(F)F)N1CCC2(CCN(Cc3ccc(Cl)cc3N3CCC(F)CC3)CC2)C1 [Example 28, 1,1,1,3,3,3-Hexafluoropropan-2-yl 8-(4-chloro-2-(4-fluoropiperidin-1-yl)benzyl)-2,8-diazaspiro[4.5]decane-2-carboxylate]
* * *	### (### is ≥75%)	# (# is ≤25%)	–	CC(=O)N1CCC2(CC1)CCN(c1cc(Cl)ccc1CN1CCN(C(=O)OC(C(F)(F)F)C(F)(F)F)CC1)C2 [Example 29, 1,1,1,3,3,3-Hexafluoropropan-2-yl 4-(2-(8-acetyl-2,8-diazaspiro[4.5]decan-2-yl)-4-chlorobenzyl)piperazine-1-carboxylate]
* * *	### (### is ≥75%)	# (# is ≤25%)	–	CS(=O)(=O)N1CCC2(CCN(c3cc(Cl)ccc3CN3CCN(C(=O)OC(C(F)(F)F)C(F)(F)F)CC3)C2)CC1 [Example 30, 1,1,1,3,3,3-Hexafluoropropan-2-yl 4-(4-chloro-2-(8-(methylsulfonyl)-2,8-diazaspiro[4.5]decan-2-yl)benzyl)piperazine-1-carboxylate]
–	## (## is between 25 and 75%)	### (### is ≥75%)	–	CCN1CCCc2cccc(CN3CCC4(CC3)CN(C(=O)OC(C(F)(F)F)C(F)(F)F)C4)c21 [Example 31, 1,1,1,3,3,3-Hexafluoropropan-2-yl 7-((1-ethyl-1,2,3,4-tetrahydroquinolin-8-yl)methyl)-2,7-diazaspiro[3.5]nonane-2-carboxylate]
–	### (### is ≥75%)	### (### is ≥75%)	–	O=C(OC(C(F)(F)F)C(F)(F)F)N1CCC2(CC1)CN(Cc1ccc(Cl)cc1N1CCCC1)C2 [Example 34]
–	### (### is ≥75%)	## (## is between 25 and 75%)	–	O=C(OC(C(F)(F)F)C(F)(F)F)N1CCC2(CC1)CN(Cc1ccc(C(F)(F)F)cc1N1CCCCC1)C2 [Example 35]
–	### (### is ≥75%)	### (### is ≥75%)	–	O=C(OC(C(F)(F)F)C(F)(F)F)N1CCC2(CC1)CN(Cc1ccc(C(F)(F)F)cc1N1CCOCC1)C2 [Example 36, 1,1,1,3,3,3-Hexafluoropropan-2-yl 2-(2-morpholino-4-(trifluoromethyl)benzyl)-2,7-diazaspiro[3.5]nonane-7-carboxylate]
–	### (### is ≥75%)	### (### is ≥75%)	–	O=C(OC(C(F)(F)F)C(F)(F)F)N1CC2(CCN(Cc3ccc(Cl)cc3N3CCOCC3)CC2)C1 [Example 37, 1,1,1,3,3,3-Hexafluoropropan-2-yl 7-(4-chloro-2-morpholinobenzyl)-2,7-diazaspiro[3.5]nonane-2-carboxylate]
–	### (### is ≥75%)	## (## is between 25 and 75%)	–	O=C(OC(C(F)(F)F)C(F)(F)F)N1CCC2(CC1)CN(Cc1ccc(Cl)cc1N1CCCCC1)C2 [Example 38, 1,1,1,3,33-Hexafluoropropan-2-yl 2-(4-chloro-2-(piperidin-1-yl)benzyl)-2,7-diazaspiro[3.5]nonane-7-carboxylate]
–	### (### is ≥75%)	### (### is ≥75%)	–	O=C(OC(C(F)(F)F)C(F)(F)F)N1CCC2(CC1)CN(Cc1ccc(Cl)cc1N1CCOCC1)C2 [Example 39, 1,1,1,3,3,3-Hexafluoropropan-2-yl 2-(4-chloro-2-morpholinobenzyl)-2,7-diazaspiro[3.5]nonane-7-carboxylate]
–	### (### is ≥75%)	### (### is ≥75%)	–	O=C(OC(C(F)(F)F)C(F)(F)F)N1CC2(CCN(Cc3ccc(C(F)(F)F)cc3N3CCOCC3)CC2)C1 [Example 40, 1,1,1,3,3,3-Hexafluoropropan-2-yl 7-(2-morpholino-4-(triiluoromethyl)benzyl)-2,7-diazaspiro[3.5]nonane-2-carboxylate]
–	### (### is ≥75%)	## (## is between 25 and 75%)	100 to 1000	O=C(OC(C(F)(F)F)C(F)(F)F)N1CCC2(CC1)CN(Cc1c(N3CCCCC3)cccc1C(F)(F)F)C2 [Example 41, 1,1,1,3,3,3-Hexafluoropropan-2-yl 2-(2-(piperidin-1-yl)-6-(trifluoromethyl)benzyl)-2,7-diazaspiro[3.5]nonane-7-carboxylate]
–	### (### is ≥75%)	### (### is ≥75%)	–	O=C(OC(C(F)(F)F)C(F)(F)F)N1CCC2(CC1)CN(Cc1c(Cl)cccc1N1CCCC1)C2 [Example 42, 1,1,1,3,3,3-Hexafluoropropan-2-yl 2-(2-chloro-6-(pyrrolidin-1-yl)benzyl)-2,7-diazaspiro[3.5]nonane-7-carboxylate]
–	### (### is ≥75%)	## (## is between 25 and 75%)	–	O=C(OC(C(F)(F)F)C(F)(F)F)N1CCC2(CC1)CN(Cc1c(N3CCOCC3)cccc1C(F)(F)F)C2 [Example 43, 1,1,1,3,3,3-Hexafluoropropan-2-yl 2-(2-morpholino-6-(trifluoromethyl)benzyl)-2,7-diazaspiro[3.5]nonane-7-carboxylate]
–	### (### is ≥75%)	### (### is ≥75%)	–	CS(=O)(=O)N1CCN(c2cccc(Cl)c2CN2CC3(CCN(C(=O)OC(C(F)(F)F)C(F)(F)F)CC3)C2)CC1 [Example 44, 1,1,1,3,3,3-Hexafluoropropan-2-yl 2-(2-chloro-6-(4-(methylsulfonyl)piperazin-1-yl)benzyl)-2,7-diazaspiro[3.5]nonane-7-carboxylate]
–	### (### is ≥75%)	### (### is ≥75%)	–	O=C(OC(C(F)(F)F)C(F)(F)F)N1CCC2(CC1)CN(Cc1c(Cl)cccc1N1CCCCC1)C2 [Example 45, 1,1,1,3,3,3-Hexafluoropropan-2-yl 2-(2-chloro-6-(piperidin-1-yl)benzyl)-2,7-diazaspiro[3,5]nonane-7-carboxylate]
–	–	### (### is ≥75%)	–	CCN1CCC2(CCN(c3cc(Cl)cc(CN4CCCC45CN(C(=O)OC(C(F)(F)F)C(F)(F)F)C5)c3)CC2)C1 [Example 235, 1,1,1,3,3,3-Hexafluoropropan-2-yl 5-(3-chloro-5-(2-ethyl-2,8-diazaspiro[4.5]decan-8-yl)benzyl)-2,5-diazaspiro[3.4]octane-2-carboxylate]
